{"source": "patent US9192644B2", "about": "“Bioavailable curcuminoid formulations for treating Alzheimer's disease and other age-related disorders” (The Regents of the University of California, priority 2006, dated 2015)", "key": {"iNOS": {"system": "iNOS", "assay": "Inhibition of iNOS in brain after curcumin administration", "format": "in vivo", "conditions": "mice, plasma levels 0.25-0.5 micromolar"}, "[1]": {"assay": "Conversion of curcumin to tetrahydrocurcumin in plasma", "format": "in vivo"}, "[2]": {"system": "active c-jun kinase (p)JNK", "assay": "Inhibition of active c-jun kinase in brain after curcumin administration", "format": "in vivo", "conditions": "mice, plasma levels 0.25-0.5 micromolar"}, "[3]": {"format": "physicochemical", "text": "Therefore, providing a curcuminoid-to-antioxidant ratio of about 10:1 or higher should be sufficient to prevent hydrolysis during absorption, and enhance bioavailability. […] Thus, additional antioxidant need not add prohibitively to the bulk of a formulation."}, "[4]": {"assay": "Plasma levels after chronic Curc or TC administration in diet (500 ppm chow, 4 months)", "format": "in vivo, APPsw mice", "conditions": "for Plasma (μM) / concentration at 4 months: APPsw mice, 500 mg/kg chow (2.5 mg/day), 4 months; for concentration at 4 months: mouse, plasma, oral"}, "IL-1β": {"system": "IL-1β", "assay": "Inhibition of pro-inflammatory IL-1β in brain after curcumin administration", "format": "in vivo", "conditions": "mice, plasma levels 0.25-0.5 micromolar"}, "in vivo": {"assay": "in vivo", "conditions": "mouse"}, "amyloid accumulation": {"system": "amyloid accumulation", "assay": "Amyloid accumulation in vivo in APP Tg mice"}, "[5]": {"conditions": "4 hr after administration"}}, "note": "Where two headings read alike, the source gives them in different places. Marks after values point to notes of the source that are not given here."}
{"smiles": "COc1cc(/C=C/C(=O)CC(=O)/C=C/c2ccc(O)c(OC)c2)ccc1O", "note": "[Curc, curcumin]", "values": [{"measurement": "inhibition of iNOS", "setting": "iNOS", "result": "~50", "unit": "%"}, {"measurement": "curcuminoids in plasma naturally converted to tetrahydrocurcumin", "setting": "[1]", "result": 25, "unit": "%"}, {"measurement": "inhibition of active c-jun kinase (p)JNK", "setting": "[2]", "result": "~50", "unit": "%"}, {"measurement": "stability in aqueous solution", "setting": "[3]", "result": "unstable in aqueous solutions above pH 7.0"}, {"measurement": "Plasma (μM)", "setting": "[4]", "result": "(0.095 μM)"}, {"measurement": "concentration at 4 months", "setting": "[4]", "result": "35 ± 14", "unit": "ng/mL"}, {"measurement": "Brain (μg/10 mg protein)", "setting": "mouse, in vivo, ip, 4 hr", "result": "0.074 ± 0.003^b μg/10 mg protein"}, {"measurement": "inhibition of pro-inflammatory IL-1β", "setting": "IL-1β", "result": "~50", "unit": "%"}, {"measurement": "concentration at 4 hr", "setting": "in vivo", "result": "250 to 500", "unit": "nM"}, {"measurement": "amyloid accumulation", "setting": "amyloid accumulation", "result": "effectively reduces"}]}
{"smiles": "COc1cc(CCC(=O)CC(=O)CCc2ccc(O)c(OC)c2)ccc1O", "note": "[TC, tetrahydrocurcumin]", "values": [{"measurement": "stability in aqueous solution", "setting": "[3]", "result": "stable even at basic pH"}, {"measurement": "Plasma (μM)", "setting": "[5]; i.m., dose 73.5 μg", "result": "(2.639 μM)"}, {"measurement": "Plasma (μM)", "setting": "[5]; i.p., dose 147.0 μg", "result": "(2.302 μM)"}, {"measurement": "Plasma (μM)", "setting": "[4]", "result": "(0.734 μM)"}, {"measurement": "concentration at 4 months", "setting": "[4]", "result": "270 ± 3", "unit": "ng/mL"}, {"measurement": "plasma levels relative to curcumin", "setting": "[4]; same oral doses, our data and data in the literature", "result": "7-8 times"}, {"measurement": "Brain (μg/10 mg protein)", "setting": "gav, dose 147.0 μg, 4 hr after administration", "result": "0.027 ± 0.002^a μg/10 mg protein"}, {"measurement": "Brain (μg/10 mg protein)", "setting": "i.m., dose 73.5 μg, 4 hr after administration", "result": "0.223 ± 0.023^c μg/10 mg protein"}, {"measurement": "Brain (μg/10 mg protein)", "setting": "i.p., dose 147.0 μg, 4 hr after administration", "result": "0.076 ± 0.003^b μg/10 mg protein"}, {"measurement": "concentration at 4 hr", "setting": "in vivo; 73.5 μg", "result": "971 ± 92", "unit": "ng/mL"}, {"measurement": "concentration at 4 hr", "setting": "in vivo; ip, 147 μg", "result": "847 ± 19", "unit": "ng/mL"}]}
{"smiles": "O=C1O[C@H]([C@@H](O)CO)C(O)=C1O", "note": "[ascorbic acid]", "values": [{"measurement": "retarding curcumin hydrolysis", "setting": "[3]; 25 micromolar curcumin, PBS pH 7.4, absorbance at 426 nm (FIG. 2)", "result": "very effective"}, {"measurement": "retarding hydrolysis of curcumin", "setting": "[3]; curcumin-to-ascorbic acid ratio of 1:1 or 2:1, absorbance at 450 and 405 nm (FIGS. 3 and 4)", "result": "very effective"}, {"measurement": "retarding hydrolysis of curcumin", "setting": "[3]; curcumin-to-ascorbic acid ratios higher than 2:1 (FIGS. 3 and 4)", "result": "somewhat diminished effectiveness"}]}
